According to patent US20160002204A1 (Board of Regents, The University of Texas System, priority 2014, published 2016):

Target: T1, GLS1 (purified recombinant human GAC) (Homo sapiens, UniProt O94925)
T1 sequence (O94925 55-598 isoform O94925-3 limits assumed): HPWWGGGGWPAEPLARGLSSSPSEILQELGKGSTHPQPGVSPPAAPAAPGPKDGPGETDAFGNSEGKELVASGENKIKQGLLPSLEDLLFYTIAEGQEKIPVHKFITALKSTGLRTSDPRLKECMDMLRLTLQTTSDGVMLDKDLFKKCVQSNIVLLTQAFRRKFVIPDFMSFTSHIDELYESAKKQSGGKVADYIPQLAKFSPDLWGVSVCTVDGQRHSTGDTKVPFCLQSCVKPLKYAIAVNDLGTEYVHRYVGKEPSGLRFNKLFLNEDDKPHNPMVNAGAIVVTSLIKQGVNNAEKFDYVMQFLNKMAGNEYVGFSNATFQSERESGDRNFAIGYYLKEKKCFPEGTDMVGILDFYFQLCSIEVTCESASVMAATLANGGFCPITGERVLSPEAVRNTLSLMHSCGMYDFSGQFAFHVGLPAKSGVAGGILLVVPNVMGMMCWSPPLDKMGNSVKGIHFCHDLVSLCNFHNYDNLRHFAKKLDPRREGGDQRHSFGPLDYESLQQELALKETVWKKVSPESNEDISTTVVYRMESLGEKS
Test: GLS1 enzymatic activity assay (dual-coupled, Amplex UltraRed/resorufin)
Type: biochemical
Procedure: GLS1 Enzymatic Activity Assay
The inhibition of purified recombinant human GAC by varying concentrations of inhibitors is assessed via a dual-coupled enzymatic assay. The glutamate produced by the glutaminase reaction is used by glutamate oxidase to produce α-ketoglutarate, ammonia, and hydrogen peroxide, with this hydrogen peroxide subsequently being used by horseradish peroxidase to produce resorufin in the presence of Amplex UltraRed. The assay buffer consisted of 50 mM Hepes (pH 7.4), 0.25 mM EDTA and 0.1 mM Triton X-100. GAC was incubated with potassium phosphate (10 minutes at room temperature) prior to incubation with inhibitor (10 minutes at room temperature). The final reaction conditions were as follows: 2 nM GAC, 50 mM potassium phosphate, 100 mU/mL glutamate oxidase (Sigma), 1 mM glutamine (Sigma), 100 mU/mL horseradish peroxidase (Sigma), 75 μM Amplex UltraRed (Life Technologies), and 1% (v/v) DMSO. The production of resorufin was monitored on a Perkin Elmer Envision plate reader (excitation 530 nm, emission 590 nm) either in a kinetics or endpoint mode (at 20 minutes). IC50 values were calculated using a four-parameter logistic curve fit.

| Structure (SMILES) | IC50 [µM] |
| --- | --- |
| CC(C)(C)OC(=O)NCc1cn(CCCCn2ccc(NC(=O)Cc3ccccc3)cc2=O)nn1 [Example 9, tert-Butyl N-[(1-{4-[2-oxo-4-(2-phenylacetamido)-1,2-dihydropyridin-1-yl]butyl}-1H-1,2,3-triazol-4-yl)methyl]carbamate] | 0.5 to 5 |
| Nc1ccn(CCCCc2ccc(NC(=O)Cc3ccccc3)nn2)c(=O)n1 [Example 21, N-(6-(4-(4-amino-2-oxopyrimidin-1(2H)-yl)butyl)pyridazin-3-yl)-2-phenylacetamide] | 0.5 to 5 |
| COCCCNc1ccn(CCCCc2ccc(NC(=O)Cc3ccccc3)nn2)c(=O)n1 [Example 25, N-(6-(4-(4-((3-methoxypropyl)amino)-2-oxopyrimidin-1(2H)-yl)butyl)pyridazin-3-yl)-2-phenylacetamide] | 0.5 to 5 |
| CC(C)CS(=O)(=O)Nc1ccn(CCCCc2ccc(NC(=O)Cc3ccccc3)nn2)c(=O)n1 [Example 26, N-(6-(4-(4-(2-methylpropylsulfonamido)-2-oxopyrimidin-1(2H)-yl)butyl)pyridazin-3-yl)-2-phenylacetamide] | 0.5 to 5 |
| Nc1nnc(CCCCn2ccc(NC(=O)Cc3ccccc3)cc2=O)s1 [Example 30, N-{1-[4-(5-amino-1,3,4-thiadiazol-2-yl)butyl]-2-oxo-1,2-dihydropyridin-4-yl}-2-phenylacetamide] | 0.5 to 5 |
| O=C(Cc1cccc(OC(F)(F)F)c1)Nc1ccn(CCCCn2cc(C(=O)NCc3ccccc3)nn2)c(=O)n1 [Example 115, N-benzyl-1-[4-(2-oxo-4-{2-[3-(trifluoromethoxy)phenyl]acetamido}-1,2-dihydropyrimidin-1-yl)butyl]-1H-1,2,3-triazole-4-carboxamide] | 0.5 to 5 |
| C[C@@H](NC(=O)c1ccn(CCCCn2cc(C(=O)NCc3cccc(OC(F)(F)F)c3)nn2)c(=O)c1)C(N)=O [Example 137, 1-[4-(4-{[(1R)-1-carbamoylethyl]carbamoyl}-2-oxo-1,2-dihydropyridin-1-yl)butyl]-N-{[3-(trifluoromethoxy)phenyl]methyl}-1H-1,2,3-triazole-4-carboxamide] | 0.5 to 5 |
| C[C@H](NC(=O)c1ccn(CCCCn2cc(C(=O)NCc3cccc(OC(F)(F)F)c3)nn2)c(=O)c1)C(N)=O [Example 138, 1-[4-(4-{[(1S)-1-carbamoylethyl]carbamoyl}-2-oxo-1,2-dihydropyridin-1-yl)butyl]-N-{[3-(trifluoromethoxy)phenyl]methyl}-1H-1,2,3-triazole-4-carboxamide] | 0.5 to 5 |
| Nc1ccn(CCCCn2cc(C(=O)NCc3cccc(C(F)(F)F)c3)nn2)c(=O)c1 [Example 140, 1-[4-(4-amino-2-oxo-1,2-dihydropyridin-1-yl)butyl]-N-{[3-(trifluoromethyl)phenyl]methyl}-1H-1,2,3-triazole-4-carboxamide] | 0.5 to 5 |
| CC(=O)Nc1ccn(CCCCn2cc(C(=O)NCc3cccc(C(F)(F)F)c3)nn2)c(=O)c1 [Example 142, 1-[4-(4-acetamido-2-oxo-1,2-dihydropyridin-1-yl)butyl]-N-{[3-(trifluoromethyl)phenyl]methyl}-1H-1,2,3-triazole-4-carboxamide] | 0.5 to 5 |
| CCN1CCC(CC(=O)Nc2ccn(CCCCn3cc(C(=O)NCc4cccc(OC(F)(F)F)c4)nn3)c(=O)c2)CC1 [Example 207, 1-(4-{4-[2-(1-ethylpiperidin-4-yl)acetamido]-2-oxo-1,2-dihydropyridin-1-yl}butyl)-N-{[3-(trifluoromethoxy)phenyl]methyl}-1H-1,2,3-triazole-4-carboxamide] | 0.5 to 5 |
| CCN1CCC(CC(=O)Nc2ccn(CCC(F)Cn3cc(C(=O)NCc4cccc(OC(F)(F)F)c4)nn3)c(=O)c2)CC1 (stereo not drawn) [Example 218, 1-(4-{4-[2-(1-ethylpiperidin-4-yl)acetamido]-2-oxo-1,2-dihydropyridin-1-yl}-2-fluorobutyl)-N-{[3-(trifluoromethoxy)phenyl]methyl}-1H-1,2,3-triazole-4-carboxamide] | 0.1 to 0.5 |
| CCOC(=O)c1cn(CC(F)CCn2ccc(NC(=O)CC3CCCCC3)c(F)c2=O)nn1 (stereo not drawn) [Example 225, ethyl 1-{4-[4-(2-cyclohexylacetamido)-3-fluoro-2-oxo-1,2-dihydropyridin-1-yl]-2-fluorobutyl}-1H-1,2,3-triazole-4-carboxylate] | 0.5 to 5 |
| O=C1CN(CC(=O)Nc2ccn(CCC(F)Cn3cc(C(=O)NCc4cccc(OC(F)(F)F)c4)nn3)c(=O)c2)CCN1 (stereo not drawn) [Example 230, 1-(2-fluoro-4-{2-oxo-4-[2-(3-oxopiperazin-1-yl)acetamido]-1,2-dihydropyridin-1-yl}butyl)-N-{[3-(trifluoromethoxy)phenyl]methyl}-1H-1,2,3-triazole-4-carboxamide] | 0.1 to 0.5 |
| CN1CCN(CC(=O)Nc2ccn(CCC(F)Cn3cc(C(=O)NCc4cccc(OC(F)(F)F)c4)nn3)c(=O)c2)CC1 (stereo not drawn) [Example 254, 1-(2-fluoro-4-{4-[2-(4-methylpiperazin-1-yl)acetamido]-2-oxo-1,2-dihydropyridin-1-yl}butyl)-N-{[3-(trifluoromethoxy)phenyl]methyl}-1H-1,2,3-triazole-4-carboxamide] | 0.1 to 0.5 |
| CC(C)(C)OC(=O)Nc1ccn(CCC(F)Cn2cc(C(=O)NCc3cccc(C(F)(F)F)n3)nn2)c(=O)c1F (stereo not drawn) [Example 319, tert-butyl N-(3-fluoro-1-{3-fluoro-4-[4-({[6-(trifluoromethyl)pyridin-2-yl]methyl}carbamoyl)-1H-1,2,3-triazol-1-yl]butyl}-2-oxo-1,2-dihydropyridin-4-yl)carbamate] | 0.1 to 0.5 |
| Nc1ccn(CCC(F)Cn2cc(C(=O)NCc3cccc(C(F)(F)F)n3)nn2)c(=O)c1F (stereo not drawn) [Example 321, 1-[4-(4-amino-3-fluoro-2-oxo-1,2-dihydropyridin-1-yl)-2-fluorobutyl]-N-{[6-(trifluoromethyl)pyridin-2-yl]methyl}-1H-1,2,3-triazole-4-carboxamide] | > 5 |
| Nc1ccn(CCC(F)Cn2cc(C(=O)NCc3cc(C(F)(F)F)ccn3)nn2)c(=O)c1F (stereo not drawn) [Example 322, 1-[4-(4-amino-3-fluoro-2-oxo-1,2-dihydropyridin-1-yl)-2-fluorobutyl]-N-{[4-(trifluoromethyl)pyridin-2-yl]methyl}-1H-1,2,3-triazole-4-carboxamide] | > 5 |
| O=C(Cc1ccccc1)Nc1ccn(CCCn2cc(C(=O)NCc3cccc(OC(F)(F)F)c3)nn2)c(=O)c1 [Example 436, 1-{3-[2-oxo-4-(2-phenylacetamido)-1,2-dihydropyridin-1-yl]propyl}-N-{[3-(trifluoromethoxy)phenyl]methyl}-1H-1,2,3-triazole-4-carboxamide] | > 5 |
| O=C(NCc1ccccc1)c1ccn(CCCn2cc(C(=O)NCc3cccc(OC(F)(F)F)c3)nn2)c(=O)c1 [Example 437, N-benzyl-2-oxo-1-{3-[4-({[3-(trifluoromethoxy)phenyl]methyl}carbamoyl)-1H-1,2,3-triazol-1-yl]propyl}-1,2-dihydropyridine-4-carboxamide] | > 5 |
| Cc1ccc(CNC(=O)c2nnc(CCCCn3ccc(NC(=O)Cc4ccccn4)cc3=O)s2)cn1 [Example 444, N-[(6-methylpyridin-3-yl)methyl]-5-(4-{2-oxo-4-[2-(pyridin-2-yl)acetamido]-1,2-dihydropyridin-1-yl}butyl)-1,3,4-thiadiazole-2-carboxamide] | 0.1 to 0.5 |
